Where two headings read alike, the source gives them in different places.
Legend:
T47D = assay: MTS anti-proliferative assay, T47D; assay type: cell-based; details: luminal, treatment for 7 days
Procedure: (§1) The anti-proliferative effects and IC50 values of the compounds in the BC cell line panel were determined by MTS assay.
(§2) The cells, except Sk-Br-3, AU565 and BT-474 were maintained in a mixture of Dulbecco's modified Eagle's medium and Ham's F12 medium (1:1) (DMEM/F12) without phenol red supplemented with 5% fetal bovine serum (FBS) and 1× antibiotic-antimycotic (100 U/mL penicillin G sodium, 100 μg/mL streptomycin sulfate and 0.25 μg/mL amphotericin B) and were plated separately in flasks in a humidified incubator (5% CO2: 95% air, 37° C.). The media used for Sk-Br-3, AU565 and BT-474 cell lines was described in (1) Brueggemeier et al., J. Steroid Biochem. Mol. Biol., 2005; 95:129-136; and (2) Diaz-Cruz et al., J. Clin. Endocrinol. Metab., 2005; 90:2563-2570. The media were changed every 2-days. When the cells grew to about 80% confluence, cells were washed twice with calcium- and magnesium-free phosphate-buffered saline (PBS, pH 7.4), and then trypsinized with 0.05% trypsin-5.3 mm EDTA. The trypsinization was stopped by addition of culture medium with 5% FBS. After centrifugation, the dissociated cells were resuspended in the same medium and subcultured into 75-cm^2 culture flasks at a ratio of 1:5 flasks.
(§3) The BC cells were seeded at the density of 1,000 cells per well (100 μL) into 96 well plate in DMEM/F-12 (1:1), supplemented with 5% (v/v) FCS and incubated overnight at 37° C. Test compounds are solubilized in dimethyl sulfoxide (DMSO), diluted in cell culture medium to a range of final assay concentrations of 1 nM to 10 μM, added to cells and incubated for 7 days at 37° C. The medium including the test compound are refreshed at days 3 and 5. The MTS assay are carried out by using the CellTiter 96® AQueous One Solution Cell Proliferation Assay kit following the manufacturer's instruction.

AU565 = assay: MTS anti-proliferative assay, AU565; assay type: cell-based; details: AU565, luminal, treatment for 7 days
Procedure: as §1, §2, §3

[1] = molecular target: T1, Mps1/TTK kinase (recombinant GST-Mps1) (Homo sapiens, UniProt P33981); assay: Mps1 in vitro kinase assay with Cetn2 substrate; assay type: biochemical
T1 sequence (P33981 1-857): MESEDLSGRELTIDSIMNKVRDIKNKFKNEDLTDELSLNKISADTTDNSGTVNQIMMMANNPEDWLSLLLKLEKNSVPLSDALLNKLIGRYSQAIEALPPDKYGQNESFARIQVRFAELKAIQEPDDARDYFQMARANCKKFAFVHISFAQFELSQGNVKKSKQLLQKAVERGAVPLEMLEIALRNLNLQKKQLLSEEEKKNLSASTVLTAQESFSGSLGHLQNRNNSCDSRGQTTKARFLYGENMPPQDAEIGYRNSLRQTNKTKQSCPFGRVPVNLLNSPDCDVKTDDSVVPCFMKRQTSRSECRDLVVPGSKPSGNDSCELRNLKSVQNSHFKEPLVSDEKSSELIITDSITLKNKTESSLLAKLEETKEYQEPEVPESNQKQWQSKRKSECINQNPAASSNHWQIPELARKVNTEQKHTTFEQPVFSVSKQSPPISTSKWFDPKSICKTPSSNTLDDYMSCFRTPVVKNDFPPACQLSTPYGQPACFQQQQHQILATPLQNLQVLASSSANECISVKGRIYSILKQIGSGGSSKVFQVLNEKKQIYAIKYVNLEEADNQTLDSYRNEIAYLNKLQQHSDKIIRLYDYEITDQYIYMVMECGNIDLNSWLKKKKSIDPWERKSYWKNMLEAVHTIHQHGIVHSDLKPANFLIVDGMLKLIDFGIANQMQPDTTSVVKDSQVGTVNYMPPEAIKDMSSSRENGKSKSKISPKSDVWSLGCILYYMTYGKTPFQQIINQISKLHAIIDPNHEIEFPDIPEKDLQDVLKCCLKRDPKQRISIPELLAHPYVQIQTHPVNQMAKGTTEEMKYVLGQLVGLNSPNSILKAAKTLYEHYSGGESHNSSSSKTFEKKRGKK
Procedure: To determine the efficacy of the compounds against Mps1/TTK kinase activity, assays were performed as previously described (11) using recombinant Mps1, Cetn2 (specific substrate), and varying concentration of compound.

MDA-MB-231 = assay: MTS anti-proliferative assay, MDA-MB-231; assay type: cell-based; details: MDA-MB-231, TNBC, basal B, treatment for 7 days
Procedure: as §1, §2, §3

MDA-MB-436 = assay: MTS anti-proliferative assay, MDA-MB-436; assay type: cell-based; details: MDA-MB-436, TNBC, basal B, treatment for 7 days
Procedure: as §1
(§4) The media were changed every 2-days. When the cells grew to about 80% confluence, cells were washed twice with calcium- and magnesium-free phosphate-buffered saline (PBS, pH 7.4), and then trypsinized with 0.05% trypsin-5.3 mm EDTA. The trypsinization was stopped by addition of culture medium with 5% FBS.
as §3

Sk-Br-3 = assay: MTS anti-proliferative assay, Sk-Br-3; assay type: cell-based; details: Sk-Br-3, luminal, treatment for 7 days
Procedure: as §1, §2, §3

CAL-51 = assay: MTS anti-proliferative assay, CAL-51; assay type: cell-based; details: CAL-51, TNBC, basal, treatment for 7 days
Procedure: as §1, §2, §3

MCF-7 = assay: MTS anti-proliferative assay, MCF-7; assay type: cell-based; details: MCF-7, luminal A, treatment for 7 days
Procedure: as §1, §2, §3

Hs578T = assay: MTS anti-proliferative assay, Hs578T; assay type: cell-based; details: TNBC, basal B, treatment for 7 days
Procedure: as §1, §2, §3

[2] = system: panel of breast cancer cell lines; assay: Anti-proliferative assays, panel of BC cell lines (overall statements); assay type: cell-based; details: in some or all of the cell based assays in the panel
Procedure: This example describes the development of novel small molecule Mps1/TTK inhibitors as targeted therapies for TNBC and other aggressive BC using drug discovery technologies. Using computational modeling, medicinal chemistry, biochemistry and cell culture assays, the inventors have identified novel small molecules as potential Mps1/TTK inhibitors. The compounds were evaluated in anti-proliferative assays of a panel of 15 BC cell lines and further examined for their ability to inhibit a variety of Mps1-dependent biological functions.
as §1, §2, §3

MDA-MB-468 = assay: MTS anti-proliferative assay, MDA-MB-468; assay type: cell-based; details: MDA-MB-468, TNBC, basal B, treatment for 7 days
Procedure: as §1, §2, §3

CAMA-1 = assay: MTS anti-proliferative assay, CAMA-1; assay type: cell-based; details: CAMA-1, luminal, treatment for 7 days
Procedure: as §1, §2, §3

HCC1937 = assay: MTS anti-proliferative assay, HCC1937; assay type: cell-based; details: HCC1937, TNBC, basal, treatment for 7 days
Procedure: as §1, §2, §3

BT-20 = assay: MTS anti-proliferative assay, BT-20; assay type: cell-based; details: BT-20, TNBC, basal A, treatment for 7 days
Procedure: as §1, §2, §3

BT-474 = assay: MTS anti-proliferative assay, BT-474; assay type: cell-based; details: BT-474, luminal B, treatment for 7 days
Procedure: as §1, §2, §3

MDA-MB-453 = assay: MTS anti-proliferative assay, MDA-MB-453; assay type: cell-based; details: MDA-MB-453, luminal A, treatment for 7 days
Procedure: as §1, §4, §3

BT-549 = assay: MTS anti-proliferative assay, BT-549; assay type: cell-based; details: BT-549, TNBC, basal B, treatment for 7 days
Procedure: as §1, §2, §3

[3] = system: S-phase (BrdU-positive) cells; assay: Centriole number in S-phase cells (preliminary investigations); assay type: cell-based; details: drug for 20 hours, then 4 hour pulse of BrdU
Procedure: (§5) For these cell biology assays, cells were plated onto poly-L-lysine coated coverslips in 24 well dishes using the medium and growth conditions described above, but using medium containing phenol red. At 24 hours after plating, compounds (or the equivalent amount of DMSO) were added to individual wells at various concentrations. Cells were incubated for 24 hours at 37° C. BrdU was added during the last 4 hours of the incubation, after which cells were fixed in pre-chilled methanol at −20 OC for 10 minutes, stained with centrosome markers, then treated with acid to denature chromosomal DNA prior to staining for BrdU. To assess centriole biogenesis, centriole number was determined for triplicate samples in cells that had entered S-phase as judged by incorporation of BrdU. Primary antibodies used were mouse anti-γTubulin (pericentriolar material) and rabbit anti-Centrin 2 (centrioles). Secondary antibodies used were Alexa594-conjugated donkey anti-mouse and Alexa488-conjugated donkey anti-rabbit.
For centriole assembly assays, Cal-51 and MDA-MB-468 cells were treated with candidate compounds prior to a short pulse of BrdU. Because the centriole pair is replicated at the G1/S transition, compounds that block centrosome assembly will lead to an increased number of BrdU-positive cells with two centrioles. […]

Cal-51 cells = assay: Centriole assembly / centrosome amplification assay, Cal-51; assay type: cell-based; details: Cal-51, at 10 μM
Procedure: as §5
For centriole assembly assays, Cal-51 and MDA-MB-468 cells were treated with candidate compounds prior to a short pulse of BrdU. Because the centriole pair is replicated at the G1/S transition, compounds that block centrosome assembly will lead to an increased number of BrdU-positive cells with two centrioles. In addition, like many breast cancer cells Cal-51 and MDA-MB-468 are capable of centrosome amplification, and compounds that block this centrosome amplification should reduce the number of BrdU-positive cells with more than four centrioles.

[4] = additional investigations (text to Table 2), read-out: IC50, in vitro kinase activity of Mps1
[5] = in vitro kinase assay with Cetn2 substrate, Table 2, read-out: IC50 w/Cetn 2

| Compound | IC50 [1, 4] [µM] | IC50 [1, 5] [µM] | IC50 (MDA-MB-231; Homo sapiens, 168 h) [µM] | IC50 (MDA-MB-436; Homo sapiens, 168 h) [µM] | IC50 (Sk-Br-3; Homo sapiens, 168 h) [µM] | IC50 (CAL-51; Homo sapiens, 168 h) [µM] | IC50 (MCF-7; Homo sapiens, MCF7, 168 h) [µM] | IC50 (Hs578T; Homo sapiens, Hs-578T, 168 h) [µM] | potency as compared to Mps1-IN-1 [2] | IC50 (MDA-MB-468; Homo sapiens, 168 h) [µM] | IC50 (CAMA-1; Homo sapiens, 168 h) [µM] | IC50 (HCC1937; Homo sapiens, 168 h) [µM] | IC50 (BT-20; Homo sapiens, 168 h) [µM] | IC50 (BT-474; Homo sapiens, 168 h) [µM] | IC50 (MDA-MB-453; Homo sapiens, 168 h) [µM] | IC50 (BT-549; Homo sapiens, 168 h) [µM] | effect on centriole assembly [3] | effect on centriole assembly (Cal-51 cells) | effect on centrosome amplification (Cal-51 cells) | further results |
| --- | --- | --- | --- | --- | --- | --- | --- | --- | --- | --- | --- | --- | --- | --- | --- | --- | --- | --- | --- | --- |
| COc1ccccc1Nc1nc(Nc2ccccc2S(=O)(=O)C(C)C)c2cc[nH]c2n1 [Compound 10, N4-(2-(isopropylsulfonyl)phenyl)-N2-(2-methoxyphenyl)-7H-pyrrolo-[2,3-d]pyrimidine-2,4-diamine] | 3.4 | 3.42 | 0.45 | 1.29 | 0.97 | 1.5 | 0.35 | > 10 | significantly more potent | 1.86 | 1.55 | 0.99 | 0.05 | 0.72 | > 10 | 1.6 |  |  |  | IC50 (T47D; Homo sapiens, 168 h): 0.34 µM; IC50 (AU565; Homo sapiens, 168 h): > 10 µM |
| COc1cc(N2CCOCC2)ccc1Nc1nc(Nc2ccccc2S(=O)(=O)C(C)C)c2cc[nH]c2n1 [Compound 11, N4-(2-(isopropylsulfonyl)phenyl)-N2-(2-methoxy-4-morpholinophenyl)-7H-pyrrolo[2,3-d]pyrimidine-2,4-diamine] | 13.1 | 13.1 | > 10 | 1.23 | 0.37 | 0.3 | 0.4 | > 10 | significantly more potent | 0.36 | 0.78 | 1.1 | 1.5 | 0.33 | > 10 | 1.31 |  |  |  |  |
| COc1cc(N2CCC(O)CC2)ccc1Nc1cc(Nc2ccccc2S(=O)(=O)C(C)C)c2cc[nH]c2n1 [Mps1-IN-1, reference compound] |  |  |  |  |  |  |  |  |  |  |  |  |  |  |  |  | little effect | little effect | little effect | IC50 (T47D): > 10 µM; IC50 (AU565): > 10 µM; IC50 (MDA-MB-231): > 10 µM; IC50 (MDA-MB-436): > 10 µM; IC50 (Sk-Br-3): > 10 µM; IC50 (CAL-51): 1.84 µM; IC50 (MCF-7): > 10 µM; IC50 (Hs578T): > 10 µM; IC50 (MDA-MB-468): 1.85 µM; IC50 (CAMA-1): > 10 µM; IC50 (HCC1937): > 10 µM; IC50 (BT-20): > 10 µM; IC50 (BT-474): > 10 µM; IC50 (MDA-MB-453): > 10 µM; IC50 (BT-549): 2.44 µM |
| AZ3146 |  |  |  |  |  |  |  |  |  |  |  |  |  |  |  |  | little effect | little effect | little effect |  |
